Laboratory results taken from patent publication US11690822B2, “Method for treating non-compaction cardiomyopathy” (EXCELSIOR PHARMATECH LABS, priority 2018, dated 2023).

How the values were obtained:
LVNC cardiomyocytes [1] = assay: Seahorse assay of mitochondrial function (OCR, ECAR) in LVNC-hiPSC-derived cardiomyocytes; assay type: cell-based, human; conditions: 5 μM, iH LVNC cardiomyocytes, FIG. 2C
Text: Human induced pluripotent stem cell (hiPSC) lines respectively derived from patients with left ventricular non-compaction cardiomyopathy (LVNC) and a normal healthy […] were reprogrammed through two approaches; one line of each patient was reprogrammed from skin cells by lentivirus carrying four Yamanaka factors (Klf4, Myc, Sox2, Oct4; conducted by Dr. Hong-Nerng Ho at NTU) and the other line was reprogrammed from peripheral blood monocytes (PBMC) by Sendai virus carrying the four Yamanaka factors (conducted by Dr. Joseph C. Wu at Stanford University). Patients consented to collect patients' tissues/blood cells for genetic examination, reprogramming to hiPSC, and pharmacological studies. […] Cell shortening was measured by the Ionoptix system (Westwood, Mass., USA), and mitochondrial function was assessed by an Agilent seahorse analyzer (Seahorse Bioscience, MA, USA).
Seahorse assay was performed on day 70 to measure mitochondrial OCR (Oxygen Consumption Rate) and ECAR (Extracellular Acidification Rate) under the conditions in the sequential adding of the XF mito stress test kit with the indicated reagents by the arrows. […] The relationship of OCR vs. ECAR was measured under the conditions of basal (before oligomycin) and maximum respiratory capacity (after FCCP).

[2] = test system: Tnnt2^R154W/+::Mypn^S1291T/+ LVNC mice; assay: Echocardiography of cardiac function (LVEF) in LVNC mice; assay type: in vivo, mouse
Procedure: Tnnt2(R154W)- and Mypn(S1291T)-knockin mice on C57BL/6j background were generated by Gene Knockout Mouse Core Laboratory of National Taiwan University Center of Genomic Medicine. Genetically heterozygous LVNC mice (Tnnt2(R154W)^+/−:: Mypn(S1291T)^+/−) were obtained from crossing Tnnt2(R154W)^+/− and Mypn(S1291T)^+/− mice. PCR and DNA sequencing were performed to confirm the genotype. All animal procedures and protocols were approved by AAALAC-accredited facility.
The cardiac motion function of LVNC mice was measured through echocardiography in M-mode by the VisualSonic vevo 2100 imaging system (VisualSonic Inc., Toronto, Canada). Cardiac glucose metabolic rate of LVNC mice was measured by dynamic small animal positron emission tomography (PET) observation under anesthetization by 2% isoflurane inhalation. ^18F-FDG (fluorodeoxyglucose 18F) uptake in LVNC mouse heart was measured for the analysis of cardiac glucose metabolic rate (MRGlu) by dynamic small animal positron emission tomography (PET) to examine the changes in cardiometabolism.
Repeated measures two-way ANOVA with multiple comparisons by the Tukey test was used to distinguish the difference in cell shortening velocity between DMSO- and simvastatin-groups on day 50 and day 70 in LVNC-hiPSC-CMs of iFa and iH. […]

LVNC cardiomyocytes [3] = assay: Proteomic analysis (LC-MS/MS) of LVNC cardiomyocytes treated with or without simvastatin; assay type: cell-based, human
Procedure: The samples were further digested by trypsin. After being desalted and dried, LC-MS/MS analysis was performed by the LTQ-Orbitrap Velos mass spectrometer system. The peptide and protein group IDs were obtained by MASCOT database searching with precursor mass accuracy of 7 ppm and MS/MS accuracy of 0.5 Da. The large mass-spectrometric raw data were further analyzed by the MaxQuant software based on the Uniprot human database with a label-free quantification method and followed by the statistical analysis using the Perseus software.

LVNC cardiomyocytes [4] = assay: Cell shortening (Ionoptix) and inotropic response to isoprenaline in LVNC-hiPSC-CMs; assay type: cell-based, human; conditions: 5 μM; isoprenaline 0.03, 0.1, 1 μM; treatment day 30 through day 70; FIG. 3B
Text: Human induced pluripotent stem cell (hiPSC) lines respectively derived from patients with left ventricular non-compaction cardiomyopathy (LVNC) and a normal healthy […] were reprogrammed through two approaches; one line of each patient was reprogrammed from skin cells by lentivirus carrying four Yamanaka factors (Klf4, Myc, Sox2, Oct4; conducted by Dr. Hong-Nerng Ho at NTU) and the other line was reprogrammed from peripheral blood monocytes (PBMC) by Sendai virus carrying the four Yamanaka factors (conducted by Dr. Joseph C. Wu at Stanford University). Patients consented to collect patients' tissues/blood cells for genetic examination, reprogramming to hiPSC, and pharmacological studies. Drug effect was validated via testing the same drug at the same dose in human cardiomyocytes derived from the two lines of the same patient with at least three independent repeats in each line. Cell shortening was measured by the Ionoptix system (Westwood, Mass., USA), and mitochondrial function was assessed by an Agilent seahorse analyzer (Seahorse Bioscience, MA, USA).

For Cc1cc(C)c(CNC(=O)c2cc(-c3ccc(N4CCN(C)CC4)nc3)cc3c2c(C)cn3C(C)C)c(=O)[nH]1 [GSK503], the “OCR and ECAR of LVNC cardiomyocytes (mitochondrial function)” value (LVNC cardiomyocytes [1]) was “does not significantly improve OCR or ECAR” and the “OCR and ECAR of LVNC cardiomyocytes (mitochondrial function)” value (LVNC cardiomyocytes [1]; listed as gsk) was “did not change cardiac mitochondrial dysfunction”.

For CCC(C)(C)C(=O)O[C@H]1C[C@@H](C)C=C2C=C[C@H](C)[C@H](CC[C@@H]3C[C@@H](O)CC(=O)O3)[C@H]21 [simvastatin], the “slope of linear regression of LVEF % vs. day” value ([2]; S(d1-84): treated initial 84 days, then 42 days drug holiday, P=0.1326, R square=0.3352, not significantly deviated from zero) was 0.05031, the “slope of linear regression of LVEF % vs. day” value ([2]; S(d1-126): continuous treatment 126 days, 3.5 mg/kg/day osmotic pump, P=0.0297, R square=0.6445, significantly deviated from zero) was 0.1098 and the “number of proteins highly expressed in both healthy/iH,ctrl and iH,s/iH,ctrl” value (LVNC cardiomyocytes [3]; iH LVNC cardiomyocytes, FIG. 4C) was 69 proteins. The “number of proteins significantly upregulated in both iF,s/iF,ctrl and iH,s/iH,ctrl” value (LVNC cardiomyocytes [3]; two LVNC patients (iFa & iH), FIG. 4D) was 27 proteins.

CC(C)c1c(C(=O)Nc2ccccc2)c(-c2ccccc2)c(-c2ccc(F)cc2)n1CC[C@@H](O)C[C@@H](O)CC(=O)O [atorvastatin] was tested, and the “cardiac contraction and positive inotropic response to isoprenaline-induced β-stimulation” value (LVNC cardiomyocytes [4]) was “the efficacy of simvastatin is better than those of the other statins”.

O=C(CCCCCCC(=O)Nc1ccccc1)NO [SAHA] was tested, and the “cardiac contraction and positive inotropic response to isoprenaline-induced β-stimulation” value (LVNC cardiomyocytes [4]) was “unable to improve LVNC cardiac functions”.

In the case of CC[C@H](C)C(=O)O[C@H]1C[C@@H](C)C=C2C=C[C@H](C)[C@H](CC[C@@H]3C[C@@H](O)CC(=O)O3)[C@H]21 [lovastatin], the “cardiac contraction and positive inotropic response to isoprenaline-induced β-stimulation” value (LVNC cardiomyocytes [4]) is reported as “the efficacy of simvastatin is better than those of the other statins”.
